Seven compounds from patent publication US20260083708A1, “IL-17 MODULATORS AND USES THEREOF” (NNOCARE PHARMA INC., priority 2024, published 2026) can be followed below.

Assay [1] concerns IL-17AF-induced IL-17 signaling pathway. Briefly: Inhibition of IL-17AF-induced IL-17 signaling pathway. It counts as cell-based. As to conditions: Homo sapiens; IL-17AF used instead of IL-17AA; read-out: IC50 for Inhibiting IL-AF Signaling. The gist of the method: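 HEK293-derived HEK-Blue IL-17 cells (IL-17RA/RC, ACT1, NF-κB/AP-1-driven SEAP) preincubated 1 hour at 37° C with serially diluted compound from 10 μM, then stimulated with IL-17AF for 20 hours. SEAP read colorimetrically at 620 nm; IC50 from 4-parameter fit of % inhibition.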

The subject of assay [2] is IL-17AA-induced IL-17 signaling pathway. Description: Inhibition of IL-17AA-induced IL-17 signaling pathway in HEK-Blue IL-17 reporter cells (SEAP). The class given is cell-based. As to conditions: Homo sapiens; HEK-Blue IL-17 cells, IL-17AA 2.5 ng/mL, 20 hours; read-out: IC50 for Inhibiting IL-AA Signaling. The gist of the method: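 HEK-Blue IL-17 cells (HEK293 expressing human IL-17RA/RC, ACT1 and NF-κB/AP-1-driven SEAP), 10,000/well, pre-incubated with compound (serial dilution from 10 μM) for 1 h at 37 °C, then stimulated with IL-17AA at 2.5 ng/mL final for 20 h. SEAP in supernatant read with Quanti-Blue at 620 nm; IC50 by 4-parameter fit.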

Assay [3] deals with T1, IL-17AA and IL-17RA (Homo sapiens, UniProt Q16552).
T1 construct: purchased Sino Biological 12047-H07B (IL-17AA); 10895-H02H (IL-17RA)
T1 sequence (Q16552 24-155): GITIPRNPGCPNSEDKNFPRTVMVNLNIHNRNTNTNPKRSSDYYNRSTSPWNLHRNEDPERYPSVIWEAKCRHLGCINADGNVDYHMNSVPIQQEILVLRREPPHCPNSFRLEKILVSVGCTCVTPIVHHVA
Description: Competitive inhibition of human IL-17AA and IL-17RA binding (HTRF). As to conditions: recombinant IL-17AA (His-tag) and IL-17RA (hFc-tag); read-out: IC50 for Inhibiting IL-AA/IL-RA Binding. The gist of the method: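 His-IL-17AA (1 nM) premixed 1 h with anti-His-Tb (0.4 nM), and Fc-IL-17RA (1 nM) with anti-IgG-d2 (1 μg/mL); these are pre-mix levels. Compounds, diluted from 10 μM, preincubated 2 h RT with IL-17AA mix; IL-17RA mix then added, 20 min. 665/615 ratio vs no-compound and no-IL-17AA controls; IC50 by 4-parameter fit.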
In general terms: TR-FRET usually uses a lanthanide donor and a delayed reading to cut background.

The structures appear in SMILES notation. pIC50: −log10 of the molar value.

Take `COCC(=O)N[C@@H](c1ncnn1CC1CC1)[C@@H](C)c1ccc(NC(=O)[C@@H](NC(=O)c2ccnn2C(C)C)C(C2CC2)C2CC2)c(F)c1` [Compound 33, N-((S)-1,1-dicyclopropyl-3-((4-((1R,2S)-1-(1-(cyclopropylmethyl)-1H-1,2,4-triazol-5-yl)-1-(2-methoxyacetamido)propan-2-yl)-2-fluorophenyl)amino)-3-oxopropan-2-yl)-1-isopropyl-1H-pyrazole-5-carboxamide]: the pIC50 is 8.11 in assay [1], 8.51 in assay [2] and 8.10 in assay [3].
As for `CCc1nonc1C(=O)N[C@H](C(=O)Nc1ccc([C@H](C)[C@@H](NC(=O)COC)c2ncnn2CC2CC2)cc1F)C(C1CC1)C1CC1` [Compound 34, N-((S)-1,1-dicyclopropyl-3-((4-((1R,2S)-1-(1-(cyclopropylmethyl)-1H-1,2,4-triazol-5-yl)-1-(2-methoxyacetamido)propan-2-yl)-2-fluorophenyl)amino)-3-oxopropan-2-yl)-4-ethyl-1,2,5-oxadiazole-3-carboxamide], the pIC50 in assay [1] was 8.49; in assay [2] it was 8.66; in assay [3], 8.59.
For `CCn1nccc1C(=O)N[C@H](C(=O)Nc1ccc([C@H](C)[C@@H](NC(=O)COC)c2ncnn2CC(C)C)cc1F)C(C1CC1)C1CC1` [Compound 36, N-((S)-1,1-dicyclopropyl-3-((2-fluoro-4-((1R,2S)-1-(1-isobutyl-1H-1,2,4-triazol-5-yl)-1-(2-methoxyacetamido)propan-2-yl)phenyl)amino)-3-oxopropan-2-yl)-1-ethyl-1H-pyrazole-5-carboxamide] the same measures were 8.66, 8.70 and 8.43.
As for `CCn1nccc1C(=O)N[C@H](C(=O)Nc1ccc([C@H](C)[C@H](NC(=O)COC)c2nncn2CC2CC2)cc1F)C(C1CC1)C1CC1` [Compound 37, N-((S)-1,1-dicyclopropyl-3-((4-((1S,2S)-1-(4-(cyclopropylmethyl)-4H-1,2,4-triazol-3-yl)-1-(2-methoxyacetamido)propan-2-yl)-2-fluorophenyl)amino)-3-oxopropan-2-yl)-1-ethyl-1H-pyrazole-5-carboxamide], the pIC50 in assay [1] is 6.63; in assay [2] it was 7.13; in assay [3], 6.90.
As for `CCn1nccc1C(=O)N[C@H](C(=O)Nc1ccc([C@H](C)[C@@H](NC(=O)COC)c2nccn2CC2CC2)cc1F)C(C1CC1)C1CC1` [Compound 38, N-((S)-1,1-dicyclopropyl-3-((4-((1R,2S)-1-(1-(cyclopropylmethyl)-1H-imidazol-2-yl)-1-(2-methoxyacetamido)propan-2-yl)-2-fluorophenyl)amino)-3-oxopropan-2-yl)-1-ethyl-1H-pyrazole-5-carboxamide], the pIC50 is 8.15 in assay [1], 8.54 in assay [2] and 8.12 in assay [3].
With `CCn1nccc1C(=O)N[C@H](C(=O)Nc1ccc([C@H](C)[C@@H](NC(=O)COC)c2ncnn2CCOC)cc1F)C(C1CC1)C1CC1` [Compound 40], the pIC50 in assay [1] was 8.07; in assay [2], 8.59; in assay [3], 8.13.
For `CCn1nccc1C(=O)N[C@H](C(=O)Nc1ccc([C@H](C)[C@@H](NC(=O)COC)c2ncnn2CC2CC2)cc1F)C1CCC(C)CC1` (stereo partly drawn) [Compound 41, N-((S)-2-((4-((1R,2S)-1-(1-(cyclopropylmethyl)-1H-1,2,4-triazol-5-yl)-1-(2-methoxyacetamido)propan-2-yl)-2-fluorophenyl)amino)-1-((1R,4S)-4-methylcyclohexyl)-2-oxoethyl)-1-ethyl-1H-pyrazole-5-carboxamide] the same measures were 7.80, 7.96 and 8.31.
